For one test, the system named is MCF7R. As to the kind of experiment: Cytotoxicity against human mammary tumor cell line MCF7-R. The class given is functional, cell-based.
The next test has as its system MCF7S. As to the kind of experiment: Cytotoxicity against human mammary tumor cell line MCF7-S. It is filed as functional, cell-based.
The subject of test [1] is DLD-1. As to the kind of experiment: Efficacy against Pgp+ human colon tumor xenograft DLD1 in SCID mice at 240 mg/kg, iv. The class given is functional, organism-based. The arrangement: dose 240 mg/kg.
Test [2] relates to DLD-1. As to the kind of experiment: Efficacy against Pgp+ human colon tumor xenograft DLD1 in SCID mice at 75 mg/kg, iv. It is filed as functional, organism-based. The arrangement: dose 75 mg/kg. Background: Xenograft models place foreign cells or tissue in a host animal.
A further test has as its system A121. Put plainly: Efficacy against Pgp- human ovarian tumor xenograft A121 in SCID mice at 90 mg/kg, iv.

Molecules are shown by their SMILES. Active and inactive are the calls of the source. The calls are words filed in the database; no cut-off is given here.

A word on the IC50: it is the midpoint of a concentration-inhibition curve. Low readings indicate inhibition by little substance, high ones a need for much substance.

For the compound `CCC(=O)O[C@H]1C(=O)[C@@]2(C)[C@H]([C@H](OC(=O)c3ccccc3)[C@]3(O)C[C@H](OC(=O)[C@H](O)[C@H](C=C(C)C)NC(=O)OC(C)(C)C)C(C)=C1C3(C)C)[C@]1(OC(C)=O)CO[C@@H]1C[C@@H]2O`, the figures for the IC50 in the test on MCF7R and in the test with MCF7S were 4 nM and 0.18 nM, respectively. In addition, the result with DLD-1 [1] was Active. For the compound `CC/C=C\C/C=C\C/C=C\C/C=C\C/C=C\C/C=C/CCC(=O)O[C@@H](C(=O)O[C@H]1C[C@@]2(O)[C@@H](OC(=O)c3ccccc3)C3[C@](C)(C(=O)[C@H](OC(C)=O)C(=C1C)C2(C)C)[C@@H](O)C[C@H]1OC[C@@]31OC(C)=O)[C@@H](NC(=O)c1ccccc1)c1ccccc1` (some centres not stated), in the test on DLD-1 [1], the outcome was inactive. For `CC(=O)O[C@@]12CO[C@@H]1C[C@H](O)[C@@]1(C)C(=O)[C@H](O)C3=C(C)[C@@H](OC(=O)[C@H](O)[C@@H](NC(=O)OC(C)(C)C)c4ccccc4)C[C@@](O)([C@@H](OC(=O)c4ccccc4)[C@H]21)C3(C)C` [DOCETAXEL], the concentration for half-maximal inhibition (IC50) was 723 nM in the test with MCF7R and 1 nM with MCF7S. For `CC(=O)O[C@H]1C(=O)[C@@]2(C)[C@H]([C@H](OC(=O)c3ccccc3)[C@]3(O)C[C@H](OC(=O)[C@H](O)[C@@H](NC(=O)c4ccccc4)c4ccccc4)C(C)=C1C3(C)C)[C@]1(OC(C)=O)CO[C@@H]1C[C@@H]2O` [PACLITAXEL] the same measures were 550 nM and 1.7 nM.

For the compound `CC(=O)O[C@@]12CO[C@@H]1C[C@H](O)[C@@]1(C)C(=O)[C@H](OC(=O)N(C)C)C3=C(C)[C@@H](OC(=O)[C@H](O)[C@H](C=C(C)C)NC(=O)OC(C)(C)C)C[C@@](O)([C@@H](OC(=O)c4ccccc4)C12)C3(C)C` (some centres not stated), the IC50 with MCF7R is 7.4 nM; in the test on MCF7S, 0.13 nM.

For the compound `CCC(=O)O[C@H]1C(=O)[C@@]2(C)[C@H]([C@H](OC(=O)c3ccccc3)[C@]3(O)C[C@H](OC(=O)[C@H](O)[C@H](CC(C)C)NC(=O)OC(C)(C)C)C(C)=C1C3(C)C)[C@]1(OC(C)=O)CO[C@@H]1C[C@@H]2O`, the values for the half-inhibitory concentration (IC50) in the test with MCF7R and in the test on MCF7S were 5.1 nM and 0.35 nM, respectively. For `CC(=O)O[C@@]12CO[C@@H]1C[C@H](O)[C@@]1(C)C(=O)[C@H](OC(=O)C3CC3)C3=C(C)[C@@H](OC(=O)[C@H](O)[C@H](CC(C)C)NC(=O)OC(C)(C)C)C[C@@](O)([C@@H](OC(=O)c4ccccc4)C12)C3(C)C` (some centres not stated), in that order: 7.9 nM and 0.51 nM. Take `CCCCC/C=C\C/C=C\CCCCCCCC(=O)O[C@@H](C(=O)O[C@H]1C[C@@]2(O)[C@@H](OC(=O)c3ccccc3)C3[C@](C)(C(=O)[C@H](OC(=O)CC)C(=C1C)C2(C)C)[C@@H](O)C[C@H]1OC[C@@]31OC(C)=O)[C@H](C=C(C)C)NC(=O)OC(C)(C)C` (some centres not stated): the result in the test on DLD-1 [2] was Active. For the compound `CC(=O)O[C@@]12CO[C@@H]1C[C@H](O)[C@@]1(C)C(=O)[C@H](OC(=O)C3CC3)C3=C(C)[C@@H](OC(=O)[C@H](O)[C@H](C=C(C)C)NC(=O)OC(C)(C)C)C[C@@](O)([C@@H](OC(=O)c4ccccc4)[C@H]21)C3(C)C`, the IC50 is 3.9 nM in the test on MCF7R and 0.2 nM in the test on MCF7S. Besides, the outcome in the test on DLD-1 [1] was Active.

Regarding `CC/C=C\C/C=C\C/C=C\C/C=C\C/C=C\C/C=C/CCC(=O)O[C@@H](C(=O)O[C@H]1C[C@@]2(O)[C@@H](OC(=O)c3ccccc3)C3[C@](C)(C(=O)[C@H](OC(=O)N(C)C)C(=C1C)C2(C)C)[C@@H](O)C[C@H]1OC[C@@]31OC(C)=O)[C@H](C=C(C)C)NC(=O)OC(C)(C)C` (some centres not stated), the result in the test with A121 was Active.

With `COC(=O)O[C@H]1C(=O)[C@@]2(C)C([C@H](OC(=O)c3ccccc3)[C@]3(O)C[C@H](OC(=O)[C@H](O)[C@H](C=C(C)C)NC(=O)OC(C)(C)C)C(C)=C1C3(C)C)[C@]1(OC(C)=O)CO[C@@H]1C[C@@H]2O` (some centres not stated), the half-inhibitory concentration (IC50) turned out to be 9.7 nM in the test on MCF7R and 0.14 nM with MCF7S. Regarding `CC/C=C\C/C=C\C/C=C\CCCCCCCC(=O)O[C@@H](C(=O)O[C@H]1C[C@@]2(O)[C@@H](OC(=O)c3ccccc3)C3[C@](C)(C(=O)[C@H](OC(=O)CC)C(=C1C)C2(C)C)[C@@H](O)C[C@H]1OC[C@@]31OC(C)=O)[C@H](C=C(C)C)NC(=O)OC(C)(C)C` (some centres not stated), the result in the test on DLD-1 [2] was Active.

The values above are taken from ChEMBL document CHEMBL1138108, “Syntheses and evaluation of novel fatty acid-second-generation taxoid conjugates as promising anticancer agents” (Bioorg Med Chem Lett, 2006).
